pKi: −log10 of the molar value.
Legend:
CYP 2C19 = conditions: cited from earlier work
[1] = design: method as in ref WuXi; conditions: WuXi's Acceptance Range For Positive Controls; ref WuXi; cited from earlier work
5-HT4 receptor = molecular target: T1, 5-HT4 receptor (Homo sapiens, UniProt Q13639); experiment: 5-HT4 radioligand binding; conditions: reference compound
T1 construct: expressed in transfected cells; host or cells: HeLa

[2] = cited from earlier work
M3 receptor = molecular target: T2, M3 receptor (Homo sapiens, UniProt P20309); experiment: M3 radioligand binding; conditions: reference compound
T2 construct: purchased Perkin Elmer
T2 sequence (P20309 whole entry): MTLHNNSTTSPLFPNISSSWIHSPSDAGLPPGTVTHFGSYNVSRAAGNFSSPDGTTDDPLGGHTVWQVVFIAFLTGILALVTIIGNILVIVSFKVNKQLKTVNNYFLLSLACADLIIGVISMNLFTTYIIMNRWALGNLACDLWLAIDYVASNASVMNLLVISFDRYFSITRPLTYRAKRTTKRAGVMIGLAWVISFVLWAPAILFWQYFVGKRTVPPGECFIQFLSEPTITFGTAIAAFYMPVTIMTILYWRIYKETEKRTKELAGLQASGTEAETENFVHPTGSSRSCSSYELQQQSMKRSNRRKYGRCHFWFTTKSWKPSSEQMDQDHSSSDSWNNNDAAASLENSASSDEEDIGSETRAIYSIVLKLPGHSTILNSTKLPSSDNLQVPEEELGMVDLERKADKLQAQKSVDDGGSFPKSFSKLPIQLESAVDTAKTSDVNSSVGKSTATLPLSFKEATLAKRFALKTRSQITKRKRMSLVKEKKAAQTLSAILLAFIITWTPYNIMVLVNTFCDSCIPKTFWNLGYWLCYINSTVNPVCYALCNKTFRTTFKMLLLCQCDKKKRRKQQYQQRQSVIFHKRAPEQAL

T1 sequence (Q13639 whole entry): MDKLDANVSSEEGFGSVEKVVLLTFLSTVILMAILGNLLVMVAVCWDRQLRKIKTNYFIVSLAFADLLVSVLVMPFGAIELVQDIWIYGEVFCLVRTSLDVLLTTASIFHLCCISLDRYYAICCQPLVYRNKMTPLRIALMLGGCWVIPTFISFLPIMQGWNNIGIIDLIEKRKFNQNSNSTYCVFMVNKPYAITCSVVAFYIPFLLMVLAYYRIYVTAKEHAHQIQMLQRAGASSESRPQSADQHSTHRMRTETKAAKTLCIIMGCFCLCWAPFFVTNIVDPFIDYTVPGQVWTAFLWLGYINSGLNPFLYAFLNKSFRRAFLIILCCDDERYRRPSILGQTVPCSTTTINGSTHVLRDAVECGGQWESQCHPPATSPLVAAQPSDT

CCC1(c2ccccc2)NC(=O)N(Cc2ccccc2)C1=O (single isomer, unassigned; (+)) [(+)-N-3-benzylnirvanol]
CYP 2C19 IC50 Acceptance Range (CYP 2C19): 0.100~0.350 μM

NC(=O)N1c2ccccc2C=Cc2ccccc21 [Carbamazepine]
Kinetic Solubility pH=7.4 [1]: 43 ± 4 µg/mL

Cn1cc(C(=O)OCC2CCN(CCNS(C)(=O)=O)CC2)c2ccccc21 [GR113808]
pKi (5-HT4 receptor): 9.35

CC(=O)CC(c1ccccc1)c1c(O)c2ccccc2oc1=O (centres unmarked) [Warfarin]
Plasma Protein Binding Bound% Human [2]: >98%

O[Si](CCCN1CCCCC1)(c1ccc(F)cc1)C1CCCCC1 (centres unmarked) [p-F-HHSiD]
pKi (M3 receptor): 7.46
